Test results from US20160010142A1, “Compositions and Methods For Analysis of C02 Absorption” (NOVOZYMES NORTH AMERICA, INC., priority 2013, published 2016).

How the values were obtained:
carbonic anhydrase [1] = experiment: Effect of salt on carbonic anhydrase activity, 50 mM bicine/cresol red assay; type: biochemical; conditions: form of the enzyme that precipitates in the absence of salt
Description: The measurement of CO2 absorption enhancement by carbonic anhydrase was performed as described in Example 1 except the assay reagent contains 50 mM bicine at pH 8.65+/−0.05. This embodiment of the assay reagent delays the assay response relative to Example 1. Such a delay expands the “assay window” (from 5.1 to 6.7 seconds, inclusive, in Example 1; to 6.8 to 9.9 seconds, inclusive), and permits analysis of more data points.
When required, such as for stability of certain forms of carbonic anhydrase, additional compounds, such as salts, for example sodium chloride, can be added to the assay reagent. This embodiment of the assay reagent leads to an improved measure of carbonic anhydrase activity for forms of the enzyme which, in the absence of salt, may aggregate, precipitate, or otherwise change their form and alter the result in the assay measurement of CO2 absorption enhancement. The required concentration of salt is expected to be enzyme dependent, and the assay can be used to determine the optimal salt concentration required for optimal enzyme activity determination.
FIG. 3 presents the effect of salt concentration on the determination of carbonic anhydrase activity for a form of the enzyme that precipitates in the absence of salt.

[2] = cited from earlier work
carbonic anhydrase [3] = experiment: Carbonic anhydrase activity before and after zinc addition, bicine/cresol red CO2 hydration assay; type: biochemical, microbial origin; conditions: for fold improvement: activity with 3.5 mM zinc salt versus assay sample without zinc; for Activity (U/mL): zinc deficient enzyme sample incubated with 3.5 mM zinc salt overnight at room temperature
Description: A solution containing 25 mM bicine and 123 micromolar (0.05 g/L) cresol-red (pH 8.3) is prepared as the assay reagent. The assay substrate is prepared at room temperature by bubbling CO2 gas into either a 125 mL Erlenmeyer flask containing 100 mL deionized H2O (dH2O) or a 50 ml plastic conical tube containing 30 mL dH2O. Bubbling proceeds for at least 10 minutes to yield a saturated CO2(aq) solution ([CO2]˜30 mM (Kernohan, J. C. 1965. Biochim. Biophys. Acta 96: 304). Carbonic anhydrase test samples are diluted for the assay using the assay reagent as diluent. A set of assay samples, made by 5- or 6-×0.7-fold serial dilutions of the enzyme test sample, are loaded onto a 96-well microtiter plate. Eight replicate wells each containing 100 microliters of each dilution are plated. Corresponding blank wells are loaded on the same plate in alternating columns with the assay sample wells. Blank wells contain either assay reagent alone or a 5- or 6-×0.7-fold serial dilution set of a modified enzyme test sample, where the modification involves removing or inactivating the active enzyme of the test sample.
The plate is inserted into a temperature controlled plate reader equipped with a liquid dispenser unit with the inject head immersed in the aqueous CO2 substrate solution. Initial absorbance of a single well is collected, followed by injection of 100 microliters of aqueous CO2 substrate into a single well and kinetic absorbance reads are collected at fixed time intervals (e.g., every 0.5 seconds) for that well such that the rate of absorbance change can be measured and used to indicate the rate of CO2 hydration. After approximately 5-10 seconds the reaction is no longer monitored and the process is repeated for all subsequent wells. Data automatically collected on the instrument is saved or exported in Microsoft Excel file format and copy/pasted into the Microsoft Excel automated data processing template. The data collected for each well is automatically checked for a linear slope (change in absorbance with change in time) within a selected “assay window” indicating the enzyme in that well was saturated with substrate during the assay window. The assay window is a sub-set of data points collected between selected time points for each well. The assay window for all wells in this example are the same. The slope of the data collected from an individual well assay window is called the “assay slope.” Wells passing the “linearity test” are averaged for a particular dilution to determine the “average assay slope” for that particular dilution. Next, a T-test between blank and assay sample replicates determines the probability that the differences between the two data sets could arise by chance, improving data quality by ensuring that data from an excessively diluted assay sample are not included in calculations of enzyme activity. If at least 3 dilution sets pass the T-test (T-test value <0.05), and at least 4 out of 8 replicate wells for those dilutions pass the “linearity test,” the average assay slope (change in absorbance per unit time) for each accepted dilution is plotted versus the amount of enzyme present in that dilution. […]
Carbonic anhydrase activity improvement was evaluated by measuring enzyme activity before and after zinc addition according to the method of Example 1. […]

[4] = compared to other indicators with similar pKas, such as phenol red; cited from earlier work

Compound: [Cl-].[Na+] [NaCl, sodium chloride]
- effect of salt addition on activity of a carbonic anhydrase test sample (carbonic anhydrase [1]): improve the activity

Compound: NC(CO)(CO)CO [Tris]
- pKa [2]: 8.0

Compound: CCC1(CC)C(=O)NC(=O)NC1=O [Veronal]
- pKa [2]: 8.0

Compound: [Cl-].[Cl-].[Zn+2] [ZnCl2]
- fold improvement (carbonic anhydrase [3]): 9 (ZnCl2) fold
- Activity (U/mL) (carbonic anhydrase [3]): 5800 (ZnCl2) U/mL

Compound: O.O.O.O.O.O.O.O=S(=O)([O-])[O-].[Zn+2] [ZnSO4 × 7H2O, ZnSO4×7 H2O]
- fold improvement (carbonic anhydrase [3]): 10 (ZnSO4 × 7H2O) fold
- Activity (U/mL) (carbonic anhydrase [3]): 6400 (ZnSO4 × 7H2O) U/mL

Compound: Cc1cc(C2(c3ccc(O)c(C)c3)OS(=O)(=O)c3ccccc32)ccc1O [cresol red, o-Cresolsulfonephthalein]
- water solubility [4]: relatively high water solubility
- pKa [2]: 8.32

Compound: [Zn] [zinc]
- fold improvement (carbonic anhydrase [3]): around 10 fold
